Structures can show the parent of a compound that is named as a salt.
Assays:
[1] = basic or acidic aqueous solution; cited from earlier work
Hsp70 [2] = settings: cited from earlier work
Hsp70 [3] = settings: cited from earlier work; remark: listed apart in the source
HSP70 [4] = target: T1, HSP70 (Mus musculus, UniProt Q61696); assay: in vivo analysis of FAM-labeled bifunctional molecule after hind limb heating; set-up: species or system mice; settings: 20 nmol i.v., about 4 hours post-injection (8 hrs post hyperthermia), dermis dissected
T1 construct: imaging an inducible target using an endogenous protein involved in stress response; from tissue; host or cells: heated right hind limb of live mice
T1 sequence (Q61696 whole entry): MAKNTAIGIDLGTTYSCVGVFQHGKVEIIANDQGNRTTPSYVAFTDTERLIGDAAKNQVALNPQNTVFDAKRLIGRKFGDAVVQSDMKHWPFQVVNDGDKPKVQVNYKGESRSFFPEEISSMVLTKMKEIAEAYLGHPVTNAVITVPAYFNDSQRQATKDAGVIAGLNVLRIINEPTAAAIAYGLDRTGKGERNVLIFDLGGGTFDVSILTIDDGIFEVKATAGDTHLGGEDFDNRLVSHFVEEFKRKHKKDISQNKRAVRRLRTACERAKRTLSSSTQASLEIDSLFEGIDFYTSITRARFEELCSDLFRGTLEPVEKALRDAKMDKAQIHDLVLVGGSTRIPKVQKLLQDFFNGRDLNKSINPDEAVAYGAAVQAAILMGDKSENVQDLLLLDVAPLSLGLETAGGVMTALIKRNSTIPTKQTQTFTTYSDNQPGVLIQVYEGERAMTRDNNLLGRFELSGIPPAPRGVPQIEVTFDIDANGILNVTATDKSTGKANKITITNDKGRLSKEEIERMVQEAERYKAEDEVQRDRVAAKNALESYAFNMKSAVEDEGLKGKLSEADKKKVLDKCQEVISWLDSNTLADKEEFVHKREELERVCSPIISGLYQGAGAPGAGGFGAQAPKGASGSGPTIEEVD
Procedure: As a control, 6-carboxyfluorescein (6-FAM) was administered at the same dose (20 nmol) in the same manner. Due to the high intrinsic autofluorescence of the dermis, experimental mice were sacrificed, the dermis dissected, and imaged on a small animal dedicated optical system (Xenogen/Caliper IVIS-200) using the appropriate excitation/emission filter set.

| fluorescence in heated limb tissue (HSP70 [4]) | SMILES | hydrolytic stability [1] | Kd (Hsp70 [2]) [µM] | effect on Hsp70 steady state ATPase activity (Hsp70 [3]) |
| --- | --- | --- | --- | --- |
|  | N=C(N)NCCCCCCC(=O)N[C@@H](O)C(=O)NCCCCNCCCN (racemic) [Compound 15-DSG, (±)7-[(aminoiminomethyl)amino]-N-[2-[[4-[(3-aminopropyl)amino]butyl]amino]-1-hydroxy-2-oxoethyl]heptanamide trihydrochloride] | hydrolyses gradually | 4 | stimulates |
| minimal level of fluorescence | O=C(O)c1ccc2c(c1)C1(OC2=O)c2ccc(O)cc2Oc2cc(O)ccc21 [Compound 6-FAM, 6-carboxyfluorescein] |  |  |  |

— US20110270151A1, “IMAGE-GUIDED ENERGY DEPOSITION FOR TARGETED DRUG DELIVERY” (The Methodist Hospital Research Institute, priority 2008, published 2011)
